PMC2409929 (British Journal of Cancer, 2004)
Marks after values point to notes of the source that are not given here.

Key:
[1] = test system: patients with metastatic colorectal cancer; assay: Toxicity graded by NCI-CTC in the phase II trial; format: in vivo, human; details: for Anaemia, Grade 3–4, %Patients / Anaemia, all grades, %Patients / Leukocytopenia, Grade 3–4, %Patients / Leukocytopenia, all grades, %Patients / Neutropenia, Grade 3–4, %Patients / Neutropenia, all grades, %Patients / Thrombocytopenia, Grade 3–4, %Patients / Thrombocytopenia, all grades, %Patients: worst grade during study
Description: Haematology was checked weekly.
Otherwise, they were analysed by nonparametric methods. […] All tests for significance were two-tailed.

[2] = 140 mg m^−2: 10 mg m^−2 irinotecan as 14-day prolonged infusions, N=6, mean±s.d.; ref 16 (Herben et al, 1999); cited from earlier work
[3] = arm C (250 mg m^−2 90-min i.v. q2 weeks)
[4] = arm C (250 mg m^−2 90-min i.v. q2 weeks), possibly or probably related
[5] = arm D (10 mg m^−2 day^−1 14-day continuous infusion q3 weeks)
[6] = arm D (10 mg m^−2 day^−1 14-day continuous infusion q3 weeks), possibly or probably related

In the case of `CCc1c2c(nc3ccc(OC(=O)N4CCC(N5CCCCC5)CC4)cc13)-c1cc3c(c(=O)n1C2)COC(=O)[C@]3(O)CC` [irinotecan], the “Febrile neutropenia, %Cycles” value [1, 3] is reported as 1%, the “Febrile neutropenia, %Patients” value [1, 3] is reported as 7% and the “Leukocytopenia, Grade 3–4, %Cycles” value [1, 3] is reported as 6%. For the same compound, the “Leukocytopenia, all grades, %Cycles” value [1, 3] was 56%, the “Neutropenia, Grade 3–4, %Cycles” value [1, 3] was 20% and the “Neutropenia, all grades, %Cycles” value [1, 3] was 57%. For the same compound, the “Neutropenic infection, %Cycles” value [1, 3] was 1%, the “Neutropenic infection, %Patients” value [1, 3] was 2% and the “Number of patients with at least one grade 3–4 adverse event possibly or probably related to irinotecan” value [1, 3] was 14. For the same compound, the “Patients who discontinued treatment due to toxicity (from the study drug)” value [1, 3] was 11%, the “Patients with at least one grade 3–4 adverse event possibly or probably related to irinotecan, %” value [1, 3] was 30% and the “Thrombocytopenia, Grade 3–4, %Cycles” value [1, 3] was 0/0%. The “Thrombocytopenia, all grades, %Cycles” value [1, 3] was 6%, the “Alopecia, all grades, % of patients” value [1, 4] was 67 ^b % and the “Anorexia, all grades, % of patients” value [1, 4] was 17%. For the same compound, the “Cholinergic syndrome, Grade 3–4, % of patients” value [1, 4] was 2%, the “Cholinergic syndrome, all grades, % of patients” value [1, 4] was 61 ^a % and the “Diarrhoea, Grade 3–4, % of patients” value [1, 4] was 13%. The “Diarrhoea, all grades, % of patients” value [1, 4] was 74%, the “Fatigue, Grade 3–4, % of patients” value [1, 4] was 4% and the “Fatigue, all grades, % of patients” value [1, 4] was 61%. The “Fever in absence of infection, Grade 3–4, % of patients” value [1, 4] was 4%, the “Fever in absence of infection, all grades, % of patients” value [1, 4] was 15% and the “Gastrointestinal pain, Grade 3–4, % of patients” value [1, 4] was 2%. The “Gastrointestinal pain, all grades, % of patients” value [1, 4] was 17%, the “Infection, all grades, % of patients” value [1, 4] was 11% and the “Nausea, Grade 3–4, % of patients” value [1, 4] was 9%. For the same compound, the “Nausea, all grades, % of patients” value [1, 4] was 65%, the “Vomiting, Grade 3–4, % of patients” value [1, 4] was 9% and the “Vomiting, all grades, % of patients” value [1, 4] was 50%. The “Median time to recovery from grade 3–4 neutropenia” value ([1]; arm C (250 mg m^−2 90-min i.v. q2 weeks), range 1–12) was 7 days, the “Median number of days to grade 3–4 nadir (neutropenia)” value ([1]; arm C (250 mg m^−2 90-min i.v. q2 weeks), range 6–17) was 7 days and the “Anaemia, Grade 3–4, %Patients” value [1, 3] was 4/4%. For the same compound, the “Anaemia, all grades, %Patients” value [1, 3] was 91%, the “Leukocytopenia, Grade 3–4, %Patients” value [1, 3] was 15% and the “Leukocytopenia, all grades, %Patients” value [1, 3] was 70%. The “Neutropenia, Grade 3–4, %Patients” value [1, 3] was 28%, the “Neutropenia, all grades, %Patients” value [1, 3] was 65% and the “Thrombocytopenia, Grade 3–4, %Patients” value [1, 3] was 0/0%. The “Thrombocytopenia, all grades, %Patients” value [1, 3] was 15%, the “Anaemia, Grade 3–4, %Cycles” value [1, 5] was 0/0% and the “Anaemia, all grades, %Cycles” value [1, 5] was 83%. The “Discontinuation due to toxicity, main reason diarrhoea” value [1, 5] was 14%, the “Discontinuation due to toxicity, main reason vomiting” value [1, 5] was 14% and the “Episodes of grade 3–4 neutropenia with duration <8 days” value [1, 5] was 25%. The “Leukocytopenia, Grade 3–4, %Cycles” value [1, 5] was 3%, the “Leukocytopenia, all grades, %Cycles” value [1, 5] was 24% and the “Neutropenia, Grade 3–4, %Cycles” value [1, 5] was 5%. For the same compound, the “Neutropenia, all grades, %Cycles” value [1, 5] was 15%, the “Neutropenic infection, %Cycles” value [1, 5] was 1% and the “Neutropenic infection, %Patients” value [1, 5] was 2%. For the same compound, the “Number of patients with at least one grade 3–4 adverse event possibly or probably related to irinotecan” value [1, 5] was 22, the “Patients who discontinued treatment due to toxicity (from the study drug)” value [1, 5] was 21% and the “Patients with at least one grade 3–4 adverse event possibly or probably related to irinotecan, %” value [1, 5] was 50%. The “Thrombocytopenia, Grade 3–4, %Cycles” value [1, 5] was 3%, the “Thrombocytopenia, all grades, %Cycles” value [1, 5] was 8% and the “Alopecia, all grades, % of patients” value [1, 6] was 34 ^b %. For the same compound, the “Anorexia, Grade 3–4, % of patients” value [1, 6] was 5%, the “Anorexia, all grades, % of patients” value [1, 6] was 34% and the “Cholinergic syndrome, all grades, % of patients” value [1, 6] was 7 ^a %. The “Diarrhoea, Grade 3–4, % of patients” value [1, 6] was 25%, the “Diarrhoea, all grades, % of patients” value [1, 6] was 77% and the “Fatigue, Grade 3–4, % of patients” value [1, 6] was 7%. For the same compound, the “Fatigue, all grades, % of patients” value [1, 6] was 52%, the “Fever in absence of infection, all grades, % of patients” value [1, 6] was 16% and the “Gastrointestinal pain, Grade 3–4, % of patients” value [1, 6] was 2%. The “Gastrointestinal pain, all grades, % of patients” value [1, 6] was 23%, the “Infection, Grade 3–4, % of patients” value [1, 6] was 7% and the “Infection, all grades, % of patients” value [1, 6] was 11%. For the same compound, the “Nausea, Grade 3–4, % of patients” value [1, 6] was 23%, the “Nausea, all grades, % of patients” value [1, 6] was 80% and the “Vomiting, Grade 3–4, % of patients” value [1, 6] was 16%. The “Vomiting, all grades, % of patients” value [1, 6] was 59%, the “Median time to recovery from grade 3–4 neutropenia” value ([1]; arm D (10 mg m^−2 day^−1 14-day continuous infusion q3 weeks), range 4–4) was 4 days and the “Median number of days to grade 3–4 nadir (neutropenia)” value ([1]; arm D (10 mg m^−2 day^−1 14-day continuous infusion q3 weeks), range 14–19) was 16 days. The “Anaemia, Grade 3–4, %Patients” value [1, 5] was 0/0%, the “Anaemia, all grades, %Patients” value [1, 5] was 91% and the “Leukocytopenia, Grade 3–4, %Patients” value [1, 5] was 5%. For the same compound, the “Leukocytopenia, all grades, %Patients” value [1, 5] was 30%, the “Neutropenia, Grade 3–4, %Patients” value [1, 5] was 9% and the “Neutropenia, all grades, %Patients” value [1, 5] was 23%. For the same compound, the “Thrombocytopenia, Grade 3–4, %Patients” value [1, 5] was 5%, the “Thrombocytopenia, all grades, %Patients” value [1, 5] was 9% and the “Irinotecan AUC” value [2] was 12.8 ± 3.9 µM·h.
